Literature values, collected in patent publication US20080045551A1, “PHARMACEUTICAL COMBINATION COMPRISING AN ADENOSINE A1 ANTAGONIST AND A RADIOCONTRAST MEDIA” (priority 2006, published 2008).

Tested on: radiocontrast media induced nephropathy
Conditions: intensive care patients; Greiner 2005

Cn1c(=O)c2[nH]cnc2n(C)c1=O [theophylline]
prophylaxis of radiocontrast media induced nephropathy (CIN): prophylactic properties
